According to patent US7972780B2, “ITPase gene polymorphisms associated with adverse drug reactions to azathioprine therapy” (Guy's and St. Thomas' NHS Foundation Trust, priority 2004, dated 2011):
Where two headings read alike, the source gives them in different places.

Experiments:
[1] = tested on: Caucasian patients with IBD; settings: for Odds ratio, All side effects: ADR n = 62 vs controls n = 68; for Odds ratio, Hepatotoxicity / Odds ratio, Other: n = 4 vs controls; for Odds ratio, Neutropenia: n = 11 vs controls; for Odds ratio, Flu-like symptoms: n = 16 vs controls
patients = settings: Dubinsky et al. 2001; cited from earlier work
[2] = ITPA 94C>A, TPMT heterozygous genotypes excluded

Cn1cnc([N+](=O)[O-])c1Sc1ncnc2nc[nH]c12 [azathioprine]
Odds ratio, Rash (IBD patients; ITPA 94C>A, 6 patients): 10.833
Odds ratio, flu-like symptoms (IBD patients; ITPA 94C>A, 11 patients): 6.190
Odds ratio, adverse drug reactions to AZA therapy (IBD patients; ITPA 94C>A, 64 ADR patients vs 71 without side-effects, dominant model): 4.239
Odds ratio, Nausea and vomiting (IBD patients; variant TPMT genotypes, subset of 14 patients): 5.079
Odds ratio, All side effects ([1]; ITPA 94C > A variant genotype): 4.2
Odds ratio, Hepatotoxicity ([1]; ITPA 94C > A): 10.3
Odds ratio, Other ([1]; ITPA 94C > A): 3.4
Odds ratio, Rash ([1]; ITPA 94C > A, n = 6 vs controls): 10.3
Odds ratio, Pancreatitis ([1]; ITPA 94C > A, n = 8 vs controls): 6.2
Odds ratio, Neutropenia ([1]; ITPA 94C > A): 1.0
Odds ratio, Nausea and vomiting ([1]; ITPA 94C > A, n = 13 vs controls): 3.1
Odds ratio, Flu-like symptoms ([1]; ITPA 94C > A): 4.7
Odds ratio, Nausea and vomiting [1, 2]: 6.2
Odds ratio, Pancreatitis [1, 2]: 7.8
Odds ratio, Rash [1, 2]: 15.5
Odds ratio, adverse drug reactions ([1]; ITPA 94C>A, TPMT heterozygous genotypes excluded from side-effect cohort): 5.3
Odds ratio, All side effects ([1]; ITPA IVS2 + 21A > C variant genotype): 0.7
Odds ratio, Hepatotoxicity ([1]; ITPA IVS2 + 21A > C): 0.5
Odds ratio, Other ([1]; ITPA IVS2 + 21A > C): 4.2
Odds ratio, Rash ([1]; ITPA IVS2 + 21A > C, n = 6 vs controls): 0.9
Odds ratio, Pancreatitis ([1]; ITPA IVS2 + 21A > C, n = 8 vs controls): 0.6
Odds ratio, Neutropenia ([1]; ITPA IVS2 + 21A > C): 0.4
Odds ratio, Nausea and vomiting ([1]; ITPA IVS2 + 21A > C, n = 13 vs controls): 0.4
Odds ratio, Flu-like symptoms ([1]; ITPA IVS2 + 21A > C): 1.0
Odds ratio, All side effects ([1]; TPMT *3A + C variant genotype): 1.7
Odds ratio, Hepatotoxicity ([1]; TPMT *3A + C): 2.9
Odds ratio, Rash ([1]; TPMT *3A + C, n = 6 vs controls): 4.4
Odds ratio, Pancreatitis ([1]; TPMT *3A + C, n = 8 vs controls): 1.3
Odds ratio, Neutropenia ([1]; TPMT *3A + C): 0.9
Odds ratio, Nausea and vomiting ([1]; TPMT *3A + C, n = 13 vs controls): 5.5
Odds ratio, Flu-like symptoms ([1]; TPMT *3A + C): 0.3
Odds ratio, risk of experiencing an adverse drug reaction ([1]; TPMT and ITPA 94C>A genotypes combined): 3.5
patients remaining intolerant on re-challenge with reduced dose ([1]; of the 4 re-challenged patients heterozygous for a variant TPMT allele): two patients remained intolerant
patients in whom therapy could be continued at full dose ([1]; of the 62 patients suffering adverse drug reactions): 5
patients who tolerated a reduced dose ([1]; patients with ITPA 94C>A alleles): 3 of 6

Nc1nc2nc[nH]c2c(=S)[nH]1 [thioguanine, 6-thioguanine]
use in patients with 6-MP/AZA-related toxicity (patients): used successfully
